# “Also recorded” adds a separate entry of the source.
# Legend:
# [1] = system: α-mannosidase gene expression; test: Geraniol/ACC treatment of seedlings, real-time RT-PCR of mannosidase expression; format: in vivo, tomato (Pusa Ruby); conditions: for regulation of α-mannosidase expression: rin and/or wild type, relative to control
# From the text: Geraniol is an acyclic dietary monoterpene, having in vitro and in vivo antitumor activity against various cancer cell lines and is therefore considered as a new class of agents for cancer chemoprevention. It was also reported that geraniol interferes with the membrane functions of Candida albicans and Saccharomyces cervisiae. […] This instigated us to further analyze the role of geraniol on α-mannosidase induction in pleiotropic rin mutant. The rin seedlings were fed with 10% geraniol and samples collected.
# RNA was isolated according to the Lithium chloride method and quantified using nanodrop (ND-100). 5 μg of total RNA was reverse transcribed to cDNA using superscript II (Invitrogen). Quantitative RT-PCR was performed using light Cycler Version 4.05 (Roche diagnostics) with cyber green. The cycle consisted of initial 10 min Taq activation at 95° C. followed by 45 cycles, consisting of 10 s at 94° C., 10 s at 55° C. and 10 s at 72° C. Then the melt curve analysis was performed to verify the fidelity of the amplification. Using the 2^−ΔΔ CT method, the data is presented as the fold change in gene expression normalized to an endogenous reference gene and relative to the control. The gene encoding actin was used as the endogenous control.
# Pusa Ruby seeds were sterilized and germinated on MS medium. After 15 days the seedlings were transferred to a liquid media containing 10 mM geraniol in 20% DMSO or 1 mM ACC (1-aminocyclopropane-1-carboxylic acid) in water. The RNA was isolated from the harvested sample and reverse transcribed to cDNA for real-time RT-PCR analysis. Expression was calculated relative to the control seedlings (0 hr).
# [2] = target: T1, tomato α-mannosidase (Solanum lycopersicum, UniProt D3TI68); test: N-linked oligosaccharide cleavage, HPAE chromatography; format: biochemical; conditions: incubated at 37° C. overnight, Carbopac PA-1 column
# Procedure: (§1) The temperature and pH optimum for the enzyme was 45° C. and pH 6.0, respectively. […] To identify the nature of the tomato α-mannosidase it was resolved on SDS-PAGE and subjected to PAS staining, the protein stained positive for glycoproteins. […] In order to correlate specific activity at particular ripening stage with the protein accumulation, immunoblot analysis of all the stages was done using polyclonal antibody raised against 70 kD subunit of the protein homologus to α-mannosidase. […] Our finding was further reinforced by a report in Arabidopsis which classified α-mannosidase homologue (Q8LPJ3) into cell wall protein with a signal peptide for secretion. To decipher the role of α-mannosidase on N-glycans and their processing, we targeted three N-linked oligosaccharides (Oligomannose-3, Oligomannose-5 and Oligomannose-9) commonly found in the fruit pericarp. To verify its action on N-glycans, α-mannosidase was incubated with N-linked oligosaccharides at 37° C. overnight and the reaction mixture was resolved on Carbopac PA-1 column.
# One μg of protein was incubated with 100 ng each of N-linked oligosaccharides (Dextra, U.K) at 37° C. overnight and the sample was filtered through PVDF membrane to remove the enzyme. 10 μl of the filtered sample was used for the analysis. An HPAE-PAD system (Dionex DX 500 BioLC) equipped with a gradient pump (GP 40), an anion exchange column (Carbopac PA-1, 4×250 mm) an eluant degas module (EDM-2) for pressurizing the eluants with argon was used for the analysis of monosaccharides. The separated monosaccharides were detected by an ED 40 detector equipped with a gold electrode and an Ag/AgCl reference electrode. The resulting chromatographic data was integrated and plotted using a PC based oracle 2 data acquisition system (Indtech Analytical, Bombay), The standard (mannose) was injected at a concentration of 100 nmoles before and after the analysis of each sample to confirm the results. This confirmed the N-glycan processing ability of mannosidase
# [3] = cited from earlier work
# [4] = substrate: O=[N+]([O-])c1ccc(O[C@H]2O[C@H](CO)[C@@H](O)[C@H](O)[C@@H]2O)cc1; test: Mannosidase enzyme assay and biochemical characterization; parameters: species or system tomato (Solanum lycopersicum); conditions: other: purified tomato enzyme; pH 6.0
# Procedure: as §1
# Mannosidase was assayed in one ml of the reaction mixture consisting of 940 μl of MQ, 20 μl of 20 mM substrate (pNP-α-D-mannopyrinoside) and 20 μl aliquot of the enzyme at 37° C. for 15 min along with a blank devoid of the enzyme. […] The colour developed as result of pNP release was recorded at 405 nm and quantified using a standard curve.
# [5] = target: T1, tomato α-mannosidase; test: as above
# Procedure: as §1
# Mannosidase was assayed in one ml of the reaction mixture consisting of 940 μl of MQ, 20 μl of 20 mM substrate (pNP-α-D-mannopyrinoside) and 20 μl aliquot of the enzyme at 37° C. for 15 min along with a blank devoid of the enzyme. The reaction was stopped by adding of 40 μl of 0.5M Na2CO3. The colour developed as result of pNP release was recorded at 405 nm and quantified using a standard curve.
molecule,measurement,setting,value
"NC1(C(=O)O)CC1 [ACC, 1-aminocyclopropane-1-carboxylic acid]",regulation of α-mannosidase expression,[1]; seedlings,up regulate
CC(=O)N[C@H]1[C@H](O[C@H]2[C@H](O)[C@@H](NC(C)=O)C(O)O[C@@H]2CO)O[C@H](CO)[C@@H](O[C@@H]2O[C@H](CO[C@H]3O[C@H](CO)[C@@H](O)[C@H](O)[C@@H]3O)[C@@H](O)[C@H](O[C@H]3O[C@H](CO)[C@@H](O)[C@H](O)[C@@H]3O)[C@@H]2O)[C@@H]1O (stereo partly drawn) [Oligomannose-3],cleavage by α-mannosidase,[2],able to cleave terminal mannose residue/s
CC(=O)N[C@H]1[C@H](O[C@H]2[C@H](O)[C@@H](NC(C)=O)C(O)O[C@@H]2CO)O[C@H](CO)[C@@H](O[C@@H]2O[C@H](CO[C@H]3O[C@H](CO[C@H]4O[C@H](CO)[C@@H](O)[C@H](O)[C@@H]4O)[C@@H](O)[C@H](O[C@H]4O[C@H](CO)[C@@H](O)[C@H](O)[C@@H]4O)[C@@H]3O)[C@@H](O)[C@H](O[C@H]3O[C@H](CO)[C@@H](O)[C@H](O)[C@@H]3O)[C@@H]2O)[C@@H]1O (stereo partly drawn) [Oligomannose-5],cleavage by α-mannosidase,[2],able to cleave terminal mannose residue/s
CC(=O)N[C@H]1[C@H](O[C@H]2[C@H](O)[C@@H](NC(C)=O)C(O)O[C@@H]2CO)O[C@H](CO)[C@@H](O[C@@H]2O[C@H](CO[C@H]3O[C@H](CO[C@H]4O[C@H](CO)[C@@H](O)[C@H](O)[C@@H]4O[C@H]4O[C@H](CO)[C@@H](O)[C@H](O)[C@@H]4O)[C@@H](O)[C@H](O[C@H]4O[C@H](CO)[C@@H](O)[C@H](O)[C@@H]4O[C@H]4O[C@H](CO)[C@@H](O)[C@H](O)[C@@H]4O)[C@@H]3O)[C@@H](O)[C@H](O[C@H]3O[C@H](CO)[C@@H](O)[C@H](O)[C@@H]3O[C@H]3O[C@H](CO)[C@@H](O)[C@H](O)[C@@H]3O[C@H]3O[C@H](CO)[C@@H](O)[C@H](O)[C@@H]3O)[C@@H]2O)[C@@H]1O (stereo partly drawn) [Oligomannose-9],cleavage by α-mannosidase,[2],able to cleave terminal mannose residue/s
CC(C)=CCC/C(C)=C/CO [geraniol],α-mannosidase transcript up regulated,"[1]; rin mutant seedlings fed with 10% geraniol, after 30 min",up to 6 fold
same,up-regulation in mannosidase gene expression,"[1]; seedlings, geraniol in 20% DMSO, after 30 min, compared to control (DMSO only)",up to 3 fold
same,regulation of α-mannosidase expression,[1]; seedlings,upregulated; also recorded: induced
same,solubility in water,[3],not soluble in water
tomato α-mannosidase (Solanum lycopersicum) (protein) KYMVYNTSQGIVSGKLNVHLVPHTHDDVGWLKTVDQYYVGSNNSIQVACVQNVLDSLIPALLADKNRKFIYVEQAFFQRWWRNQSPGMQSTVKQLVNSGQLESINGGWCMHDEAATHYIDMIDQTTLGHKYIKQQFNVTPRIGWQIDPFGTFCCSGIPSGSKGWIRLSFLWDALTTKDREKRKIEKSLEVIWRGSKSLSSSTQIFSGAFPQNYEPPSKFYFEVNDDNSLPVQDDVNLFDYNVQERVNDFVAAALSQANITRTNHIMWTMGTDFKYQYAHTWFRNMDKLIHYVNQDGRVNALYSSPSIYTDAKYALDESWPLKTDDYFPYADRINAYWTGYFTSRPALKLYVRMMSGYYLAARQLEFFKGRIETGPTTEILADALAIAQHHDAVSGTPKQHVADDYAKRLFIGYKQAEDLVSNSLACMVESASASGCKNPQINFKQCPLLNISYCPPTEADLAPGKKLVVVVYNALGWKRTDVVRIPVVNKNVIVEDSTGKEIESQLLPIVKESIVIRNYYAAAYFGESPTSSPKYWLVFTATVPPLGFSSYVITSGKQAVAASIPQTFYKTDGSQSDAVEVGPGNLKLLYSANGAKFTQYFNKRNQVRSSLEQSFSYYSADDGSKDDYKDIQASGAYVFRPNGSFPIHPEGKVPATILRGPLLDEVHQNINSWIYQITRVYKEKEHVEVEFTVGPIPIDNGIGKELVTQIQTDIKSNKTFYTDSNGRDFLKRVRDYRADWDLQVNQPAAGNYYPINLGLFLKDNNNEFSVLVDRSVGGSSLVDGQLELMLHRRLLNDDGRGVAEALNETVCALGKCMGLTVQGKYYIRIDSLGEGAKWRRSFGQEIYSPLLLAFTEQDGDKFTKFPVPTFTGMDPSYSLPDNVAIITLQELEDHTVLLRLAHLYEVDEDKDLSTKASVELKRLFPKRKINKIREMSLSANQERVEMEKKRLKWKAEAPSDLRDVARGGPVDPTKLMVELAPMEIRTFVIDLSQSVPEGWKSHMSL,Km,[4],4.6 mM
"tomato α-mannosidase: enzyme purified from pericarp of breaker stage tomato; SEQ ID NO: 2 (protein, listed as Solanum lycopersicum, Protein sequence of alpha mannosidase) MKNMGKFEIWFLILMVCGLWVVEAKYMVYNTSQGIVSGKLNVHLVPHTHDDVGWLKTVDQYYVGSNNSIQVACVQNVLDSLIPALLADKNRKFIYVEQAFFQRWWRNQSPGMQSTVKQLVNSGQLESINGGWCMHDEAATHYIDMIDQTTLGHKYIKQQFNVTPRIGWQIDPFGTFCCSGIPSGSKGWIRLSFLWDALTTKDREKRKIEKSLEVIWRGSKSLSSSTQIFSGAFPQNYEPPSKFYFEVNDDNSLPVQDDVNLFDYNVQERVNDFVAAALSQANITRTNHIMWTMGTDFKYQYAHTWFRNMDKLIHYVNQDGRVNALYSSPSIYTDAKYALDESWPLKTDDYFPYADRINAYWTGYFTSRPALKLYVRMMSGYYLAARQLEFFKGRIETGPTTEILADALAIAQHHDAVSGTPKQHVADDYAKRLFIGYKQAEDLVSNSLACMVESASASGCKNPQINFKQCPLLNISYCPPTEADLAPGKKLVVVVYNALGWKRTDVVRIPVVNKNVIVEDSTGKEIESQLLPIVKESIVIRNYYAAAYFGESPTSSPKYWLVFTATVPPLGFSSYVITSGKQAVAASIPQTFYKTDGSQSDAVEVGPGNLKLLYSANGAKFTQYFNKRNQVRSSLEQSFSYYSADDGSKDDYKDIQASGAYVFRPNGSFPIHPEGKVPATILRGPLLDEVHQNINSWIYQITRVYKEKEHVEVEFTVGPIPIDNGIGKELVTQIQTDIKSNKTFYTDSNGRDFLKRVRDYRADWDLQVNQPAAGNYYPINLGLFLKDNNNEFSVLVDRSVGGSSLVDGQLELMLHRRLLNDDGRGVAEALNETVCALGKCMGLTVQGKYYIRIDSLGEGAKWRRSFGQEIYSPLLLAFTEQDGDKFTKFPVPTFTGMDPSYSLPDNVAIITLQELEDHTVLLRLAHLYEVDEDKDLSTKASVELKRLFPKRKINKIREMSLSANQERVEMEKKRLKWKAEAPSDLRDVARGGPVDPTKLMVELAPMEIRTFVIDLSQSVPEGWKSHMSL",pH optimum,[5],6.0
same,temperature optimum,[5],45 °C
same,thermal stability without considerable reduction in the activity,[5]; for 1 hr,≤ 60 °C

# From US8962918B2, “Polynucleotide sequence of fruit softening associated A-mannosidase and its uses for enhancing fruit shelf life” (National Institute of Plant Genome Research, priority 2008, dated 2015)
